# Measured values published in the supplement of paper PMC11208160.
# Test: recombinant barcode read abundance after kanamycin selection (control-corrected) (log10(CPM+1)); higher = more efficient recombination; sequences stand for … in AGTGCAGAGAAAATCGGCCAGTTTTCTCTGCCTGCAGTCCGCATGCCGT…ATTTATGCAGCGGACTGCCTTTCTCCCAAAGTGATAAACCGGACAGTATCATGGACCGGTTTTCCCGGTAATCCGTATTTGCAAGGTTGGTTTCACT; site = the 11-nt target
# Experimental: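 Same pooled E. coli target screen (IS621 bridge recombinase, kanamycin selection, control-corrected CPM, mean of 2 biological replicates). Here the two core-binding nucleotides of the LTG and RTG of the bridge RNA target-binding loop are mutated. Target and donor CT cores are held constant, and the other 9 guide positions match the target. The target is read from the library oligo sequence. Molecule = full bridge RNA written as DNA: nt 1-80 from the library oligo, rest WT scaffold.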
row,Sequence,recombinant barcode read abundance (log10)
1,"AGGCGGTCGTGGGTTCTAACCTGTTGCTTAG [AGGCGGTCTAA_LTGcore_CG_RTGcore_CT] (site AGGCGGTCTAA) (LTG core: CG, RTG core: CT)",0.398
2,"AGGCGGTCTTGGGTTCTAACCTGTTGCTTCA [AGGCGGTCTAA_LTGcore_CT_RTGcore_TG] (site AGGCGGTCTAA) (LTG core: CT, RTG core: TG)",0.171
3,"AGGCGGTCTTGGGTTCTAACCTGTTGCTTCG [AGGCGGTCTAA_LTGcore_CT_RTGcore_CG] (site AGGCGGTCTAA) (LTG core: CT, RTG core: CG)",0.117
4,"AGGCGGTCTTGGGTTCTAACCTGTTGCTTTA [AGGCGGTCTAA_LTGcore_CT_RTGcore_TA] (site AGGCGGTCTAA) (LTG core: CT, RTG core: TA)",0.353
5,"AGGCGGTGTTGGGTTCTAACCTGTTGCTTAC [AGGCGGTCTAA_LTGcore_GT_RTGcore_GT] (site AGGCGGTCTAA) (LTG core: GT, RTG core: GT)",0.278
6,"AGGCGGTTATGGGTTCTAACCTGTTGCTTAG [AGGCGGTCTAA_LTGcore_TA_RTGcore_CT] (site AGGCGGTCTAA) (LTG core: TA, RTG core: CT)",0.168
7,"AGGCGGTTATGGGTTCTAACCTGTTGCTTTA [AGGCGGTCTAA_LTGcore_TA_RTGcore_TA] (site AGGCGGTCTAA) (LTG core: TA, RTG core: TA)",0.025
8,"AGGCGGTTCTGGGTTCTAACCTGTTGCTTAG [AGGCGGTCTAA_LTGcore_TC_RTGcore_CT] (site AGGCGGTCTAA) (LTG core: TC, RTG core: CT)",0
9,"AGGCGGTTCTGGGTTCTAACCTGTTGCTTGA [AGGCGGTCTAA_LTGcore_TC_RTGcore_TC] (site AGGCGGTCTAA) (LTG core: TC, RTG core: TC)",0.191
10,"AGGCGGTTTTGGGTTCTAACCTGTTGCTTAG [AGGCGGTCTAA_LTGcore_TT_RTGcore_CT] (site AGGCGGTCTAA) (LTG core: TT, RTG core: CT)",0.104
11,"AGTCTTAACTGGGTTCTAACCTGTTGCCAAG [AGTCTTACTTG_LTGcore_AC_RTGcore_CT] (site AGTCTTACTTG) (LTG core: AC, RTG core: CT)",0.111
12,"AGTCTTAACTGGGTTCTAACCTGTTGCCAGT [AGTCTTACTTG_LTGcore_AC_RTGcore_AC] (site AGTCTTACTTG) (LTG core: AC, RTG core: AC)",0.129
13,"AGTCTTAAGTGGGTTCTAACCTGTTGCCACT [AGTCTTACTTG_LTGcore_AG_RTGcore_AG] (site AGTCTTACTTG) (LTG core: AG, RTG core: AG)",0.0305
14,"AGTCTTACCTGGGTTCTAACCTGTTGCCAAG [AGTCTTACTTG_LTGcore_CC_RTGcore_CT] (site AGTCTTACTTG) (LTG core: CC, RTG core: CT)",0.0498
15,"AGTCTTACTTGGGTTCTAACCTGTTGCCATG [AGTCTTACTTG_LTGcore_CT_RTGcore_CA] (site AGTCTTACTTG) (LTG core: CT, RTG core: CA)",0.0163
16,"AGTCTTAGATGGGTTCTAACCTGTTGCCAAG [AGTCTTACTTG_LTGcore_GA_RTGcore_CT] (site AGTCTTACTTG) (LTG core: GA, RTG core: CT)",0.23
17,"AGTCTTAGATGGGTTCTAACCTGTTGCCATC [AGTCTTACTTG_LTGcore_GA_RTGcore_GA] (site AGTCTTACTTG) (LTG core: GA, RTG core: GA)",0.0257
18,"AGTCTTAGCTGGGTTCTAACCTGTTGCCAAG [AGTCTTACTTG_LTGcore_GC_RTGcore_CT] (site AGTCTTACTTG) (LTG core: GC, RTG core: CT)",0.0805
19,"AGTCTTAGGTGGGTTCTAACCTGTTGCCAAG [AGTCTTACTTG_LTGcore_GG_RTGcore_CT] (site AGTCTTACTTG) (LTG core: GG, RTG core: CT)",0
20,"AGTCTTAGTTGGGTTCTAACCTGTTGCCAAG [AGTCTTACTTG_LTGcore_GT_RTGcore_CT] (site AGTCTTACTTG) (LTG core: GT, RTG core: CT)",0.0538
21,"AGTCTTATCTGGGTTCTAACCTGTTGCCAAG [AGTCTTACTTG_LTGcore_TC_RTGcore_CT] (site AGTCTTACTTG) (LTG core: TC, RTG core: CT)",0.0237
22,"ATGCTTTAATGGGTTCTAACCTGTTGCCTTT [ATGCTTTCTAG_LTGcore_AA_RTGcore_AA] (site ATGCTTTCTAG) (LTG core: AA, RTG core: AA)",0.125

row,Sequence,recombinant barcode read abundance (log10)
1,"ATGCTTTACTGGGTTCTAACCTGTTGCCTGT [ATGCTTTCTAG_LTGcore_AC_RTGcore_AC] (site ATGCTTTCTAG) (LTG core: AC, RTG core: AC)",0.0458
2,"ATGCTTTCTTGGGTTCTAACCTGTTGCCTAA [ATGCTTTCTAG_LTGcore_CT_RTGcore_TT] (site ATGCTTTCTAG) (LTG core: CT, RTG core: TT)",0.322
3,"ATGCTTTCTTGGGTTCTAACCTGTTGCCTCA [ATGCTTTCTAG_LTGcore_CT_RTGcore_TG] (site ATGCTTTCTAG) (LTG core: CT, RTG core: TG)",0.153
4,"ATGCTTTCTTGGGTTCTAACCTGTTGCCTCC [ATGCTTTCTAG_LTGcore_CT_RTGcore_GG] (site ATGCTTTCTAG) (LTG core: CT, RTG core: GG)",0.127
5,"ATGCTTTCTTGGGTTCTAACCTGTTGCCTGG [ATGCTTTCTAG_LTGcore_CT_RTGcore_CC] (site ATGCTTTCTAG) (LTG core: CT, RTG core: CC)",0.57
6,"ATGCTTTTGTGGGTTCTAACCTGTTGCCTCA [ATGCTTTCTAG_LTGcore_TG_RTGcore_TG] (site ATGCTTTCTAG) (LTG core: TG, RTG core: TG)",0.313
7,"ATGTCCCAATGGGTTCTAACCTGTTGCTCTT [ATGTCCCCTGA_LTGcore_AA_RTGcore_AA] (site ATGTCCCCTGA) (LTG core: AA, RTG core: AA)",0.133
8,"ATGTCCCATTGGGTTCTAACCTGTTGCTCAT [ATGTCCCCTGA_LTGcore_AT_RTGcore_AT] (site ATGTCCCCTGA) (LTG core: AT, RTG core: AT)",0.0551
9,"ATGTCCCCATGGGTTCTAACCTGTTGCTCTG [ATGTCCCCTGA_LTGcore_CA_RTGcore_CA] (site ATGTCCCCTGA) (LTG core: CA, RTG core: CA)",0.0134
10,"ATGTCCCCCTGGGTTCTAACCTGTTGCTCAG [ATGTCCCCTGA_LTGcore_CC_RTGcore_CT] (site ATGTCCCCTGA) (LTG core: CC, RTG core: CT)",0.137
11,"ATGTCCCCCTGGGTTCTAACCTGTTGCTCGG [ATGTCCCCTGA_LTGcore_CC_RTGcore_CC] (site ATGTCCCCTGA) (LTG core: CC, RTG core: CC)",0.0529
12,"ATGTCCCCGTGGGTTCTAACCTGTTGCTCAG [ATGTCCCCTGA_LTGcore_CG_RTGcore_CT] (site ATGTCCCCTGA) (LTG core: CG, RTG core: CT)",0.0411
13,"ATGTCCCCTTGGGTTCTAACCTGTTGCTCAT [ATGTCCCCTGA_LTGcore_CT_RTGcore_AT] (site ATGTCCCCTGA) (LTG core: CT, RTG core: AT)",0.0302
14,"ATGTCCCCTTGGGTTCTAACCTGTTGCTCGT [ATGTCCCCTGA_LTGcore_CT_RTGcore_AC] (site ATGTCCCCTGA) (LTG core: CT, RTG core: AC)",0.161
15,"ATGTCCCGTTGGGTTCTAACCTGTTGCTCAG [ATGTCCCCTGA_LTGcore_GT_RTGcore_CT] (site ATGTCCCCTGA) (LTG core: GT, RTG core: CT)",0.0848
16,"ATGTCCCTCTGGGTTCTAACCTGTTGCTCGA [ATGTCCCCTGA_LTGcore_TC_RTGcore_TC] (site ATGTCCCCTGA) (LTG core: TC, RTG core: TC)",0.122
17,"ATGTCCCTTTGGGTTCTAACCTGTTGCTCAG [ATGTCCCCTGA_LTGcore_TT_RTGcore_CT] (site ATGTCCCCTGA) (LTG core: TT, RTG core: CT)",0.0884
18,"CATATTAAATGGGTTCTAACCTGTTGCCTAG [CATATTACTAG_LTGcore_AA_RTGcore_CT] (site CATATTACTAG) (LTG core: AA, RTG core: CT)",0.0356
19,"CATATTACATGGGTTCTAACCTGTTGCCTTG [CATATTACTAG_LTGcore_CA_RTGcore_CA] (site CATATTACTAG) (LTG core: CA, RTG core: CA)",0.00594
20,"CATATTACTTGGGTTCTAACCTGTTGCCTAG [CATATTACTAG_LTGcore_CT_RTGcore_CT] (site CATATTACTAG) (LTG core: CT, RTG core: CT)",0.22
21,"CATATTACTTGGGTTCTAACCTGTTGCCTAT [CATATTACTAG_LTGcore_CT_RTGcore_AT] (site CATATTACTAG) (LTG core: CT, RTG core: AT)",0.0875
22,"CATATTACTTGGGTTCTAACCTGTTGCCTGC [CATATTACTAG_LTGcore_CT_RTGcore_GC] (site CATATTACTAG) (LTG core: CT, RTG core: GC)",0.0956
